Marks after values point to notes of the source that are not given here.
Assays:
reg IIIb [1] = assay: Western blot analysis of reg IIIb in urine and serum of treated rats
Procedure: Female Wistar rats were used weighing 200-250 g. The animals were allocated under controlled environmental conditions in individual metabolic cages, for individual urine sample collection every 24 hours. Normal feed and water were administered ad libitum. […] On day 7, the animals were anaesthetised with sodium pentobarbital and the kidneys were perfused by the aorta with saline (0.9% NaCl) to eliminate the blood. The kidneys were immediately dissected. One was frozen in liquid nitrogen and subsequently kept at −80° C. for Western blot studies, and the other was soaked in p-formaldehyde at 3.7% for histological studies. Blood samples were also obtained in heparinised capillaries at different time points by a small incision in the tail tip. Blood was centrifuged and serum was kept at −80° C. until use. Urine was cleared by centrifugation at 10,000 g and 4° C. during 10 minutes, and kept at −80° C. until use. […]

gelsolin [2] = assay: Renal tissue gene expression by RT-PCR, gelsolin; type: in vivo, rat; details: 3 and 6 days treatment (FIG. 8)
Procedure: (§1) Female Wistar rats were used weighing 200-250 g. […] Normal feed and water were administered ad libitum. […] The kidneys were immediately dissected.
(§2) RT-PCR-amplification of reg IIIb, gelsolin and GAPDH was performed with the next primers: for rat reg IIIb, SEQ ID NO: 15 and SEQ ID NO: 16; for rat gelsolin, SEQ ID NO: 17 and SEQ ID NO: 18; for rat glyceraldehyde 3-phosphate dehydrogenase (GAPDH), SEQ ID NO: 19 and SEQ ID NO: 20. PCR conditions were: 1×(95° C.×4 min); 30×(95° C.×1 min+Tm×1 min); 1×72° C.×10 min); where Tm was 55.5° C. for reg IIIb, 55.0° C. for gelsolin, and 55.9° C. for GAPDH.

Female Wistar rats = assay: Gentamicin-induced kidney damage in rats: survival, body weight, serum and urine biochemical measurements
Procedure: (§3) Female Wistar rats were used weighing 200-250 g. The animals were allocated under controlled environmental conditions in individual metabolic cages, for individual urine sample collection every 24 hours. Normal feed and water were administered ad libitum. […] On day 7, the animals were anaesthetised with sodium pentobarbital and the kidneys were perfused by the aorta with saline (0.9% NaCl) to eliminate the blood. The kidneys were immediately dissected. One was frozen in liquid nitrogen and subsequently kept at −80° C. for Western blot studies, and the other was soaked in p-formaldehyde at 3.7% for histological studies. Blood samples were also obtained in heparinised capillaries at different time points by a small incision in the tail tip. Blood was centrifuged and serum was kept at −80° C. until use. Urine was cleared by centrifugation at 10,000 g and 4° C. during 10 minutes, and kept at −80° C. until use.
Serum and urinary creatinine and urea nitrogen concentration were measured using commercial reactive strips (Roche Diagnostics) and the Reflotron® automated analyser (Roche Diagnostics). […] Urine protein concentration was measured by the Bradford method (Bradford, 1976. Anal Biochem, 72: 248-254). Urine NAG content was indirectly determined by the level of NAG activity. NAG enzymatic activity was determined by a colorimetric method based on the conversion of 3-cresolsulfonphthaleinyl-N-acetyl-D-glucosaminide into the purple 3-cresol-cresolsulfonphthaleinyl, measured at 580 nm using a plate photometer (Thermo). To measure NAG activity a commercial kit was used (Roche Diagnostics) following the manufacturer's instructions.

Kidney sections = assay: Renal histopathological study (hematoxilin and eosin stained kidney sections); type: in vivo, rat; details: rats
Procedure: as §1
The kidneys were kept in p-formaldehyde all night at 4° C. Next, paraffin blocks were made and 5-μm tissue sections were cut and stained with hematoxilin and eosin. Photographs were taken under an Olympus BX51 microscope connected to an Olympus DP70 colour digital camera.

gelsolin [3] = assay: Western blot analysis of gelsolin in urine and serum of treated rats
Procedure: as §3
Western blots were run with (i) urine samples (21 μl per sample), (ii) tissue extracts (100 μg total protein per sample) prepared by homogenizing the kidneys with a tissue mixer (Ultra-Turrax T8, IKA®-Werwe) at 4° C. in homogenization buffer (140 mM NaCl, 20 mM Tris-HCl pH=7.5, […] ethylenediaminetetraacetic acid—EDTA-, 10% glycerol, 1% Igepal CA-630, 1 μg/mL aprotinin, 1 μg/mL leupeptin, 1 μg/mL pepstatin A, 1 mM phenylmethylsulphonyl fluoride—PMSF—), or (iii) albumin-free blood serum. Albumin was removed from serum with a column-based, commercial kit based on the immunological retention of rat albumin (Qproteome Murine Albumin Depletion Kit, Quiagen). Samples were separated by electrophoresis in 10-15% acrylamide gels (Mini Protean II system, BioRad). Immediately, proteins were electrically transferred to an Immobilon-P membrane (Millipore). Membranes were probed with antibodies against KIM-1 (R&D Systems), bone morphogenetic protein 7 (BMP-7, Santa Cruz Biotechnology), NGAL (MBL), PAI-1 (BD Biosciences), reg IIIb (R&D Systems), and gelsolin (Santa Cruz Biotechnology).

[4] = Leehey D J et al., 1993; cited from earlier work
reg IIIb [5] = assay: Renal tissue gene expression by RT-PCR, reg IIIb; type: in vivo, rat; details: as early as on day 3, highest on day 6 (FIG. 8-A)
Procedure: as §1, §2

[6] = rats, gentamicin i.p. 150 mg/kg, after 7 days treatment

Compound	Day on which reg IIIb appears in the urine (reg IIIb [1]; rats, time course of treatment, Western blot (FIG. 7))	Urinary level of reg IIIb (reg IIIb [1]; urine of rats with overt renal failure, Western blot (FIG. 6-A))	Renal expression pattern of gelsolin (gelsolin [2])	Proteinuria (Female Wistar rats; [6])	Urine flow (Female Wistar rats; [6])	Δ Weight (body weight as a percentage of the initial weight) (Female Wistar rats; [6])	Renal histopathology after 3 days of treatment (Kidney sections; after 3 days of treatment (FIG. 7))	Renal histopathology at end of treatment (Kidney sections; hematoxilin-eosin, end of treatment (FIG. 2))	Full length gelsolin band in urine (gelsolin [3]; urine of rats with overt renal failure, Western blot (FIG. 6))	Proportion of treatments in which nephrotoxicity appears [4]	Renal reg IIIb gene expression (reg IIIb [5])	Renal failure (serum creatinine concentration and BUN) (Female Wistar rats; rat, in vivo)	Full length gelsolin band in urine (gelsolin [3]; rat, in vivo)	~43 kDa gelsolin fragment (t-gelsolin) band in urine (gelsolin [3]; rat, in vivo)
gentamicin	4 days	markedly increased	does not modify	40 ± 7.4^a mg/day	18 ± 3^a mL/day	95 ± 3^a %	no findings of tubular damage	clear tubular necrosis	induces the appearance	10-25%	induces an increase			
N.N.[Cl][Pt][Cl] [cisplatin]												developed an overt renal failure	absent in the urine from all of the rats treated with cisplatin, except for one of them	common to both gentamicin and cisplatin groups

From patent US20120220480A1, “METHOD FOR THE DETECTION OF RENAL DAMAGE” (UNIVERSIDAD DE SALAMANCA, priority 2009, published 2012)
